From patent publication US5434295A (priority 1994, dated 1995)
pKi: −log10 of the molar value. Like-named read-outs stand apart in the source and are kept apart here.

Key:
Rat brain NMDA receptors = experiment: Blockade of NMDA response in Xenopus oocytes injected with rat brain RNA; assay type: biochemical
Description: Blockade of NMDA-induced voltage changes in Xenopus oocytes: Frog oocytes can be injected with genetic material from various species and organs, resulting in the expression of the various molecules encoded by this material in the oocyte. Injection of rat brain RNA provides active NMDA receptors on the ooctye surface. Application of NMDA results in changes in the electrical activity recorded from the oocytes. Various NMDA antagonists block the NMDA-induced changes in electrical activity and their potency and dose dependence in this system indicate their potency and mode of action as NMDA antagonists.
The oocyte is the most widely used system for studying the molecular, biophysical and pharmacological properties of expressed voltage- or transmitter-operated ion channels. This giant cell offers several advantages for this type of studies. It can be readily used for two-electrode voltage clamp studies, translates injected mRNA from different sources and functionally expresses the translated proteins, and it is also readily amenable for intracellular micron injections. Importantly, the recordings of neurotransmitter- or voltage-induced currents in a single oocyte are extremely stable and can performed repeatedly for 2-3 hours; this allows the performance of a full dose-response relation in single oocytes.
Rat brain NMDA receptors were expressed in Xenopus oocytes injected with total rat brain RNA. Dascal and Lotan. The conditions for injection culture and electrical recording from oocytes were as described by Dascal and Lotan (in: Methods in Molecular Biology, Longstaff and Revest, eds. Vol. 13, Chapter 13, Humana Press, N.J., 1992).
Briefly, female Xenopus were anesthetized by immersion in water containing 0.15% tricaine methanesulfonate and a small incision was made in the lower abdomen. Ovary fragments were removed into ND-96.
The oocytes were defolliculated by the collagenase treatment in order to remove the follicle cell layer. Defolliculated oocytes were injected with total rat brain RNA and incubated for 2-4 days at 22° C. in sterile NDE-96 solution. ND-96 solution contains (in mM): NaCl - 96, KCl - 2, CaCl2 - 1.8, Hepes - 5 (pH=7.4-7.6). NDE-96 contains in addition, 2.5 mM sodium pyruvate, 100 unit/ml penicillin, 100 μg/ml streptomycin. A single oocyte was placed in a 1 ml bath constantly superfused with ND-96 solution at room temperature. The cell was impaled with two microelectrodes and held at membrane potential of -60 mV using voltage clamp circuit.
RNA was extracted from the brain of 14-day old rat brain. Each oocyte was injected with 50 nl total RNA (4-8 mg/ml in water, stored at -80° C. in […] aliquots).
NMDA receptors were activated by application of NMDA with glycine in Mg-free ND-96 solution. It was shown previously and also observed in this study that the entry of calcium ions through the NMDA receptor-channel evokes a Ca-dependent Cl^- current which appeared as an early inward current peak preceding and overlapping the actual NMDA response and hindering a quantitative pharmacological study of NMDA antagonists. Experimental conditions were therefore worked out aimed at eliminating the Cl^- current. The best protocol employed the use of Ca-free, Ba-containing solution, avoiding repetitive application of antagonists, as well as other conditions including optimal perfusion rate and optimal intervals between repetitive NMDA applications.
Several NMDA receptor blockers were tested. These compounds have […] and have to be dissolved in 100% dimethyl sulfoxide (DMSO) and diluted for use in ND-96 that contained 1% DMSO. Therefore, the effect of 1% DMSO on the response to 10^-4 M NMDA and 5×10^-6 M glycine was examined. DMSO had no effect on NMDA response in three different cells.
Eight putative NMDA antagonists of the HU group, including 270, 271 and 259 were tested for anti-NMDA activity at a glutamate receptor. […]

[1] = tested on: NMDA-induced toxicity in primary cerebral cortical cell cultures; experiment: Protection of cortical neurons in culture from NMDA-induced toxicity; assay type: cell-based; conditions: Rattus norvegicus, NMDA 1000 μM; for inhibition at 10 µM: 10 μM compound
Experimental: Blockage of NMDA toxicity in tissue culture: Neurons can be grown in culture and survive for several weeks. […] The ability of various compounds to prevent the morphological and metabolic changes induced by NMDA is considered a measure of their neuroprotective activity in culture.
The neuroprotective effects of the compounds of the invention were tested on neurons exposed to various excitotoxins in culture. The compounds tested included HU-259, HU-260, HU-270 and HU-271, which were all shown to have NMDA antagonist properties in mice (Example 13).
The test drugs were examined for their ability to protect neurons in culture from toxic effects of agonists of the different glutamate receptor subtypes (agonists of ionotropic and/or metabotropic glutamate receptors), e.g. NMDA, AMPA, kainate and quisqualate. The culture conditions and assay conditions were all performed as described in Eshhar et al. (NeuroReport 5, No. 3, 1993). In brief, primary cerebral cortical cell cultures were prepared from 18-20 day old rat fetuses by enzymatic dissociation. Resulting cell suspensions were plated on confluent cortical glial cell feder layer (prepared 2 weeks earlier by a similar method). Neurons were grown in MEM media containing 0.6% glucose, FUDR/Uridine mixture and N2 supplement (insulin, progesterone, putrescine, selenium and transferrin). Cells at 10 days in culture were exposed to the various toxins either alone, or in the presence of the tested compounds. All exposures were carried out at 37° C. for 20-24 hours before assessing neuronal cell damage and neuroprotectant activity. Cell viability was determined morphologically following neuron specific enolase immunostaining of cells using the ABC biotin-avidin complex method, and determined quantitatively by measuring the extent of mitochondrial activity in living cells using the XTT-based assay. XTT is reduced by mitochondrial dehydrogenase to a soluble colored formazan. The density of color formation (O.D.), which is proportional to mitochondrial activity, was measured by a plate ELISA reader. The extent of neuroprotectant activity is expressed as % of cells rescued by the drugs tested.
Neuroprotectant activity of HU-259 (10 μM)--was assessed using orphological criteria only. Morphological observations (as determined by neuron specific enolase immunostaining) clearly indicated complete neuroprotection (100%).

[2] = tested on: MK-801 sites located at the NMDA receptor ion channel; experiment: Inhibition of [3H]MK-801 binding to rat forebrain membranes; conditions: for % inhibition of tritiated ligand binding to membranes, 3[H]-MK-801: 100 μM analogue
Description: Binding to the NMDA receptor linked channel: Non competitive antagonists of NMDA, the primary example of which is the compound MK-801, bind to a site within the NMDA receptor channel thus preventing the activation of the receptor-channel complex and the consequent neurotoxicity. The ability of various compounds to compete with the binding of tritium labeled MK-801 to brain membranes is considered a measure of their potency as NMDA non-competitive antagonists.
The association of pinene derivatives with acetylcholine-muscarinic receptor and with MK-801 sites located at the NMDA receptor ion channel.
Inhibition of ^3 [H]MK-801 binding to rat forebrain membranes by the test HU-211 compounds was carried out as described for HU-211 in Eshhar et al., NeuroReport 5, No. 3, 1993) (Methods section). The test compounds were solubilized in a mixture of ethanol:Emulfor:water (20:3:57).

[3] = Cortical neurone, read-out: % of cells rescued from NMDA-induced toxicity

Row | Compound | selectivity NMDA over AMPA/kainate receptors (Rat brain NMDA receptors) | % inhibition of NMDA (Rat brain NMDA receptors; 1 μM) [%] | % inhibition of NMDA (Rat brain NMDA receptors; 10 μM) [%] | mode of NMDA antagonism (Rat brain NMDA receptors; Lineweaver-Burke analysis) | concentration at which inhibitory activity was first apparent (Rat brain NMDA receptors; NMDA response) [nM] | inhibition at 10 µM ([1]; morphological criteria only (neuron specific enolase immunostaining), read-out: % of cells rescued from NMDA-induced toxicity / complete neuroprotection) [%] | % inhibition of tritiated ligand binding to membranes, 3[H]-MK-801 [2] [%] | pKi ([2]; [3H]MK801 binding, rat forebrain membranes, representative experiment in triplicate (HU259), read-out: inhibition constant (K1)) | inhibition at 10 µM [1, 3] [%] | inhibition at 1 µM ([1]; Cortical neurone, 1 μM compound, read-out: % of cells rescued from NMDA-induced toxicity (concentration dependence)) [%] | inhibition at 2 µM ([1]; Cortical neurone, 2 μM compound, read-out: % of cells rescued from NMDA-induced toxicity (concentration dependence)) [%] | inhibition at 5 µM ([1]; Cortical neurone, 5 μM compound, read-out: % of cells rescued from NMDA-induced toxicity (concentration dependence)) [%]
1 | CCCCCCC(C)(C)c1cc(OC(C)=O)c([C@H]2C=C(C(=O)O)[C@H]3C[C@@H]2C3(C)C)c(OC(C)=O)c1 [(+)-4-[4-DMH-2,6 diacetoxyphenyl]-2-carboxy-6,6-dimethylbicyclo[3.1.1]hept-2-en] | selective for the NMDA over AMPA/kainate receptors | 35 | 41 | non-competitive NMDA antagonists | 10 | 100 | 90.0 | 5.12 |  |  |  | 
2 | CCCCCCC(C)(C)c1cc(OC(C)=O)c([C@H]2C=C(C(=O)N(CC)CC)[C@H]3C[C@@H]2C3(C)C)c(OC(C)=O)c1 [HU-270] |  | 20 |  |  |  |  |  |  | 0 |  |  | 
3 | CCCCCCC(C)(C)c1cc(OC(C)=O)c([C@H]2C=C(C(=O)NCCO)[C@H]3C[C@@H]2C3(C)C)c(OC(C)=O)c1 [HU-271] |  | 16 | 20 |  |  |  | 46.3 |  | 100 | 25 | 27 | 68
